Tests used:
[1] = Xylenol orange assay: reaction of endoperoxides with Fe2+; details: 50 µM compound, 250 µM FeSO4, 125 µM xylenol orange, methanol/H2O (9:1 v/v)
Description: Xylenol orange (XO) (125 µM) and butylated hydroxytoluene (4 mM) were dissolved in methanol/H2O (9:1, v/v). FeSO4 (25 mM) in 2.5 M H2SO4 was prepared immediately before use and added, giving a final concentration of 250 µM FeSO4 in the samples. An aliquot of 100 µL EP solution (final concentration of 50 µM) was transferred into a disposable 1.5 mL cuvette (BRAND, Wertheim, Germany), and 1 mL of the color reagent was added. […] At these time points, the OD difference of the sample at 560 nm and 650 nm was determined using a MS1501 UV-vis diode array spectrophotometer (Shimadzu, Japan). As reference, a mixture of methanol/H2O (9:1, v/v) was used. […] The slope of the reaction rate was calculated using an extinction coefficient of the complex of 1.5 × 10^4 M^−1 cm^−1.

[2] = tested on: LtP; assay: EPR spin trapping (DMPO): activation of AcEPs by LtP; format: cell-based, Leishmania tarentolae; details: 500 µM compound, 2 × 10^9 LtP/mL, 40 mM DMPO, 15 min, no added iron
Description: To detect the radicals derived from AcEPs in LtP, EPR experiments were performed using DMPO as spin trap. Aliquots of the cell broth were transferred into Sarstedt tubes that were centrifuged (20 °C, 1800× g, 10 min), and the supernatants were discarded. Then the cell pellets were resuspended in PBS and centrifuged again. After removal of the supernatants, the cell pellets were resuspended in a mixture of PBS containing glucose (15 mM), giving a final cell number of 2 × 10^9 LtP/mL. Aliquots (150 µL) were incubated in 1.5 mL Eppendorf tubes with aeration holes. The cells were incubated with DMPO (40 mM) for 5 min at 26 °C, and after addition of 500 µM of the respective substance (Asc, AcEP1117, AcEP1118, AcEP1129, AcEP1130, Ac or AQ), the samples were incubated for additional 15 min at 26 °C under constant agitation (agitation speed: 0.3 s^−1). Control samples containing LtP, LtP and DMSO (1.27%, v/v), or PBS/glucose alone were incubated with 40 mM DMPO under the same conditions. Cell samples containing DMPO that were treated with Asc served as positive control. Samples treated with Ac or AQ were used as negative controls. Subsequently, 50 µL of the samples were aspirated into glass capillaries and transferred in the MD5 resonator of the EPR spectrometer. The samples were measured immediately using the following instrument settings: microwave frequency 9.684 GHz; microwave power 20 mW, modulation frequency 100 kHz; modulation amplitude 2 G; time constant 0.164 s; center field 3449 G; scan rate 71 G/min; sweep width 100 G; scan time 84 s; attenuation 8.93 × 10^5; and scans 3.

[3] = tested on: LtP; assay: Uncoupling of LtP respiration in presence of oligomycin (OxoPlates); format: cell-based, Leishmania tarentolae; details: 38 µM Oligo
Description: The uncoupling experiments using OxoPlates were carried out in analogy to oxygen consumption measurements of LtP. An oligomycin (Oligo) premix in aBHI was prepared leading to a final concentration of 38 µM oligomycin (Oligo). Each well of the second row was filled with 50 µL of aBHI. From the third row on, each well was filled with 50 µL of the Oligo premix and to the fourth row additional 50 µL Oligo premix was added. The respective amounts of the substances (Ac, AQ, AcEP1117, AcEP1118, AcEP1129, AcEP1130, CCCP) were added and a serial 1:2 dilution was performed. Measurements were carried out as described above. The oxygen consumption rates were normalized to the wells that contained only LtP. For each concentration measurements were done in triplicates.

[4] = tested on: LtP; assay: EPR (CMH oxidation): superoxide formation in LtP; format: cell-based, Leishmania tarentolae; details: 20 µM AA or 100 µM other compounds, 500 × 10^6 LtP/mL, 400 µM CMH, DFO, DTPA, 5 min, 25 °C
Description: To measure superoxide radical (O2^•−) formation induced by AcEPs in LtP, EPR spectroscopy was used. An aliquot of the cell broth was transferred into an Eppendorf tube that was centrifuged (Hettich Universal 16, 20 °C, 2000× g, 10 min). The supernatant was discarded, the cell pellet was resuspended in PBS and centrifuged again. After removal of the supernatant, the cell pellet was resuspended in a mixture of PBS, 15 mM glucose (PBS/Glu), DFO (100 µM), and DTPA (25 µM). […] The cell suspension was aliquoted. CMH was added as detection agent leading to a final concentration of 400 µM. After 5 min of incubation at 25 °C, the respective substance was added resulting in final concentrations of 20 µM antimycin A (AA) or 100 µM of AcEP1117, AcEP1118, AcEP1129, AcEP1130, Ac, and AQ. Samples containing LtP and CMH were used as negative control. Samples containing PBS/Glu and CMH were used as negative control as well. After 5 min of incubation at 25 °C with the respective substance, aliquots of 17 µL of the cell suspensions were aspirated into a PTFE tube (outer diameter 0.7 mm). The tube was transferred into the MD5 resonator of the EPR spectrometer. Immediately, the measurement was started using the following parameters: microwave frequency 9.684 GHz; microwave power 20 mW, modulation frequency 100 kHz; modulation amplitude 1 G; time constant 0.82 s; center field 3449 G; scan rate 14 G/min; sweep width 100 G; scan time 419 s; attenuation 2.52 × 10^4; and scans 5.

CC(C)C12C=CC(C)(CC1)OO2 (centres unmarked) [Asc, ascaridole, reference compound]
Slope (nM·min^−1) Mean ± SD of XO/Fe^3+ complex formation [1]: 608 ± 52 nM/min
DMPO spin adduct formation in LtP (EPR) [2]: showed DMPO spin adducts of carbon-centered radicals

N#CC(C#N)=NNc1cccc(Cl)c1 [CCCP, carbonyl cyanide m-chlorophenylhydrazone]
uncoupling effect (recovery of O2 consumption in the presence of Oligo) ([3]; 0.31–5.0 µM CCCP or 12.5–200.0 µM other compounds): a recovery of O2 consumption in the presence of Oligo was observed

CC[C@H]1/C=C/C=C/C[C@@H](C)[C@H](O)[C@@](C)(O)C(=O)[C@@H](C)[C@H](O)[C@@H](C)C(=O)[C@@H](C)[C@H](O)[C@@H](C)/C=C/C(=O)O[C@@H]2[C@H](C)[C@H](CC1)O[C@]1(CC[C@H](C)[C@H](C[C@@H](C)O)O1)[C@H]2C [Oligo, oligomycin]
oxygen consumption rate compared to untreated LtP ([3]; 140 × 10^6 LtP/mL): about 60%

CCCCCC[C@H]1C(=O)O[C@H](C)[C@H](NC(=O)c2cccc(NC=O)c2O)C(=O)O[C@@H](C)[C@@H]1OC(=O)CC(C)C [AA, antimycin A, reference compound]
CMH oxidation (superoxide radical formation) in LtP [4]: triggered additional CMH oxidation in LtP

— paper PMC6100073, “Activation of Anthracene Endoperoxides in Leishmania and Impairment of Mitochondrial Functions” (Molecules : A Journal of Synthetic Chemistry and Natural …, 2018)
